# Assay results reported in ChEMBL document CHEMBL1671626, “In vitro profiling of ceftaroline against a collection of recent bacterial clinical isolates from across the United States” (2008).
# Experiments:
# Format in all cases: functional
# [1] = system: Staphylococcus aureus; experiment: Antibacterial activity against methicillin-resistant Staphylococcus aureus by CLSI M7-A7 broth microdilution method
# [2] = system: Staphylococcus aureus; experiment: Antibacterial activity against methicillin-resistant Staphylococcus aureus assessed as susceptible isolates by CLSI M7-A7 broth microdilution method
# [3] = system: Staphylococcus aureus; experiment: Antibacterial activity against methicillin-resistant Staphylococcus aureus assessed as resistant isolates by CLSI M7-A7 broth microdilution method
# [4] = system: Staphylococcus aureus; experiment: Antibacterial activity against coagulase-negative and oxacillin-susceptible Staphylococcus aureus assessed as susceptible isolates by CLSI M7-A7 broth microdilution method
# [5] = system: Staphylococcus aureus; experiment: Antibacterial activity against coagulase-negative and oxacillin-resistant Staphylococcus aureus assessed as resistant isolates by CLSI M7-A7 broth microdilution method
# [6] = system: Streptococcus pneumoniae; experiment: Antibacterial activity against penicillin-susceptible Streptococcus pneumoniae by CLSI M7-A7 broth microdilution method
# [7] = system: Streptococcus pneumoniae; experiment: Antibacterial activity against penicillin-susceptible Streptococcus pneumoniae assessed as susceptible isolates by CLSI M7-A7 broth microdilution method
# [8] = system: Streptococcus pneumoniae; experiment: Antibacterial activity against penicillin-susceptible Streptococcus pneumoniae assessed as resistant isolates by CLSI M7-A7 broth microdilution method
# [9] = system: Streptococcus pneumoniae; experiment: Antibacterial activity against penicillin-resistant Streptococcus pneumoniae by CLSI M7-A7 broth microdilution method
# [10] = system: Streptococcus pneumoniae; experiment: Antibacterial activity against penicillin-resistant Streptococcus pneumoniae assessed as susceptible isolates by CLSI M7-A7 broth microdilution method
# [11] = system: Streptococcus pneumoniae; experiment: Antibacterial activity against penicillin-resistant Streptococcus pneumoniae assessed as resistant isolates by CLSI M7-A7 broth microdilution method
# [12] = system: Streptococcus pyogenes; experiment: Antibacterial activity against erythromycin-susceptible Streptococcus pyogenes by CLSI M7-A7 broth microdilution method
# [13] = system: Streptococcus pyogenes; experiment: Antibacterial activity against erythromycin-nonsusceptible Streptococcus pyogenes by CLSI M7-A7 broth microdilution method
# [14] = system: Streptococcus agalactiae; experiment: Antibacterial activity against erythromycin-nonsusceptible Streptococcus agalactiae by CLSI M7-A7 broth microdilution method
# [15] = system: Streptococcus viridans; experiment: Antibacterial activity against penicillin-susceptible Streptococcus viridans by CLSI M7-A7 broth microdilution method
# [16] = system: Streptococcus viridans; experiment: Antibacterial activity against penicillin-nonsusceptible Streptococcus viridans by CLSI M7-A7 broth microdilution method
# [17] = system: Enterococcus faecium; experiment: Antibacterial activity against vancomycin-resistant Enterococcus faecium by CLSI M7-A7 broth microdilution method
# [18] = system: Enterobacteriaceae; experiment: Antibacterial activity against ceftazidime-susceptible Enterobacteriaceae by CLSI M7-A7 broth microdilution method
# [19] = system: Enterobacteriaceae; experiment: Antibacterial activity against ceftazidime-susceptible Enterobacteriaceae assessed as susceptible isolates by CLSI M7-A7 broth microdilution method
# [20] = system: Enterobacteriaceae; experiment: Antibacterial activity against ceftazidime-nonsusceptible Enterobacteriaceae by CLSI M7-A7 broth microdilution method
# [21] = system: Enterobacteriaceae; experiment: Antibacterial activity against ceftazidime-nonsusceptible Enterobacteriaceae assessed as resistant isolates by CLSI M7-A7 broth microdilution method
# [22] = system: Enterobacter cloacae; experiment: Antibacterial activity against ceftazidime-susceptible Enterobacter cloacae by CLSI M7-A7 broth microdilution method
# [23] = system: Enterobacter cloacae; experiment: Antibacterial activity against ceftazidime-susceptible Enterobacter cloacae assessed as susceptible isolates by CLSI M7-A7 broth microdilution method
# [24] = system: Enterobacter cloacae; experiment: Antibacterial activity against ceftazidime-susceptible Enterobacter cloacae assessed as resistant isolates by CLSI M7-A7 broth microdilution method
# [25] = system: Enterobacter cloacae; experiment: Antibacterial activity against ceftazidime-nonsusceptible Enterobacter cloacae by CLSI M7-A7 broth microdilution method
# [26] = system: Enterobacter cloacae; experiment: Antibacterial activity against ceftazidime-nonsusceptible Enterobacter cloacae assessed as resistant isolates by CLSI M7-A7 broth microdilution method
# [27] = system: Escherichia coli; experiment: Antibacterial activity against ceftazidime-susceptible Escherichia coli by CLSI M7-A7 broth microdilution method
# [28] = system: Escherichia coli; experiment: Antibacterial activity against ceftazidime-susceptible Escherichia coli assessed as susceptible isolates by CLSI M7-A7 broth microdilution method
# [29] = system: Escherichia coli; experiment: Antibacterial activity against ceftazidime-nonsusceptible Escherichia coli assessed as susceptible isolates by CLSI M7-A7 broth microdilution method
# [30] = system: Escherichia coli; experiment: Antibacterial activity against ceftazidime-nonsusceptible Escherichia coli assessed as resistant isolates by CLSI M7-A7 broth microdilution method
# [31] = system: Klebsiella pneumoniae; experiment: Antibacterial activity against ceftazidime-susceptible Klebsiella pneumoniae by CLSI M7-A7 broth microdilution method
# [32] = system: Klebsiella pneumoniae; experiment: Antibacterial activity against ceftazidime-susceptible Klebsiella pneumoniae assessed as susceptible isolates by CLSI M7-A7 broth microdilution method
# [33] = system: Klebsiella pneumoniae; experiment: Antibacterial activity against ceftazidime-nonsusceptible Klebsiella pneumoniae by CLSI M7-A7 broth microdilution method
# [34] = system: Klebsiella pneumoniae; experiment: Antibacterial activity against ceftazidime-nonsusceptible Klebsiella pneumoniae assessed as resistant isolates by CLSI M7-A7 broth microdilution method
# [35] = system: Morganella morganii; experiment: Antibacterial activity against ceftazidime-susceptible Morganella morganii by CLSI M7-A7 broth microdilution method
# [36] = system: Proteus mirabilis; experiment: Antibacterial activity against ceftazidime-susceptible Proteus mirabilis assessed as susceptible isolates by CLSI M7-A7 broth microdilution method
# [37] = system: Proteus mirabilis; experiment: Antibacterial activity against ceftazidime-susceptible Proteus mirabilis assessed as resistant isolates by CLSI M7-A7 broth microdilution method
# [38] = system: Acinetobacter; experiment: Antibacterial activity against imipenem-susceptible Acinetobacter assessed as susceptible isolates by CLSI M7-A7 broth microdilution method
# [39] = system: Acinetobacter; experiment: Antibacterial activity against imipenem-susceptible Acinetobacter assessed as resistant isolates by CLSI M7-A7 broth microdilution method
# [40] = system: Haemophilus influenzae; experiment: Antibacterial activity against beta lactamase-negative Haemophilus influenzae by CLSI M7-A7 broth microdilution method
# [41] = system: Haemophilus influenzae; experiment: Antibacterial activity against beta lactamase-positive Haemophilus influenzae by CLSI M7-A7 broth microdilution method
# [42] = system: Moraxella catarrhalis; experiment: Antibacterial activity against beta lactamase-positive Moraxella catarrhalis assessed as susceptible isolates by CLSI M7-A7 broth microdilution method
# [43] = system: Pasteurella multocida; experiment: Antibacterial activity against Pasteurella multocida by CLSI M7-A7 broth microdilution method
# [44] = system: Providencia sp.; experiment: Antibacterial activity against ceftazidime-susceptible Providencia sp. by CLSI M7-A7 broth microdilution method
compound,measurement,setting,value
CO/N=C(\C(=O)N[C@@H]1C(=O)N2C(C(=O)O)=C(CSc3nc(=O)c(O)nn3C)CS[C@H]12)c1csc(N)n1 [CEFTRIAXONE],MIC50,[1],16 µg/mL
same,MIC90,[1],> 32 µg/mL
same,Activity,[2],14.2%
same,Activity,[3],33.1%
same,Activity,[4],98%
same,Activity,[5],22.1%
same,MIC50,[6],0.03 µg/mL
same,MIC90,[6],0.06 µg/mL
same,Activity,[7],100%
same,Activity,[8],0%
same,MIC50,[9],1 µg/mL
same,MIC90,[9],2 µg/mL
same,Activity,[10],79.4%
same,Activity,[11],6.8%
same,MIC,[12],≤ 0.015 µg/mL
same,MIC50,[12],≤ 0.015 µg/mL
same,MIC90,[12],0.03 µg/mL
same,MIC50,[13],0.03 µg/mL
same,MIC90,[13],0.12 µg/mL
same,MIC50,[14],0.06 µg/mL
same,MIC90,[14],0.12 µg/mL
same,MIC50,[15],0.06 µg/mL
same,MIC90,[15],0.25 µg/mL
same,MIC50,[16],2 µg/mL
same,MIC90,[16],8 µg/mL
same,MIC,[17],> 32 µg/mL
same,MIC50,[17],> 32 µg/mL
same,MIC90,[17],> 32 µg/mL
same,MIC50,[18],≤ 0.06 µg/mL
same,MIC90,[18],0.25 µg/mL
same,Activity,[19],98%
same,MIC50,[20],> 16 µg/mL
same,MIC90,[20],> 16 µg/mL
same,Activity,[21],0%
same,MIC50,[22],0.12 µg/mL
same,MIC90,[22],1 µg/mL
same,Activity,[23],98%
same,Activity,[24],0%
same,MIC50,[25],> 16 µg/mL
same,MIC90,[25],> 16 µg/mL
same,Activity,[26],0%
same,MIC50,[27],≤ 0.06 µg/mL
same,MIC90,[27],0.12 µg/mL
same,Activity,[28],97.4%
same,Activity,[29],9.5%
same,Activity,[30],0%
same,MIC,[31],≤ 0.06 µg/mL
same,MIC50,[31],≤ 0.06 µg/mL
same,MIC90,[31],0.12 µg/mL
same,Activity,[32],99.5%
same,MIC50,[33],> 16 µg/mL
same,MIC90,[33],> 16 µg/mL
same,Activity,[34],0%
same,MIC,[35],≤ 0.06 µg/mL
same,MIC50,[35],≤ 0.06 µg/mL
same,MIC90,[35],1 µg/mL
same,Activity,[36],96.6%
same,Activity,[37],0%
same,Activity,[38],44.7%
same,Activity,[39],0%
same,MIC,[40],≤ 0.06 µg/mL
same,MIC50,[40],≤ 0.06 µg/mL
same,MIC90,[40],≤ 0.06 µg/mL
same,MIC,[41],≤ 0.06 µg/mL
same,MIC50,[41],≤ 0.06 µg/mL
same,MIC90,[41],≤ 0.06 µg/mL
same,Activity,[42],100%
same,MIC,[43],≤ 0.015 µg/mL
same,MIC50,[43],≤ 0.015 µg/mL
same,MIC90,[43],≤ 0.015 µg/mL
same,MIC,[44],≤ 0.06 µg/mL
same,MIC50,[44],≤ 0.06 µg/mL
same,MIC90,[44],2 µg/mL
